What all share (experiment): NCI tumour cell line growth inhibition, 48 h
Assay [1] concerns 786-0 renal.
In assay [2] the test system is DU-145 prostate.
The subject of assay [3] is NCI-H460 lung.
For assay [4], the system named is TK-10 renal.
Assay [5] has as its system UACC-62 melanoma.
Assay [6] has as its system CCRF-CEM leukemia.
Assay [7] concerns COLO 205 colon.
Assay [8] concerns HOP-62 NSCLC.
Assay [9] concerns RPMI-8226 leukemia.
Assay [10] has as its system UACC-257 melanoma.

Here are results for 10 compounds from PubChem BioAssay (NCI).

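How tested: cells in 96-well plates exposed to compound for 48 hours at five concentrations. GI50 is the concentration that inhibits growth by half. At the TGI there is no net growth.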 Bounds are passed on as bounds.

Turning to `COc1cc(-c2nc3ccc(C)cc3[nH]2)ccc1OCC(=O)N=Nc1c(O)[nH]c2ccccc12`, the GI50 in assay [1] was 1.76 µM; in assay [2], 2.05 µM; in [3], 1.85 µM; in [4] it was 3.21 µM; in assay [5], 1.76 µM. In addition, the TGI in [1] is 3.24 µM; in [2], 4.39 µM; in assay [3], 3.73 µM; in [4], 11.1 µM; in [5], 3.31 µM.

For `Cc1c(CCCl)c(=O)n2c([nH]c3ccccc32)c1C#N`, the TGI is 2.84 µM in assay [1]; 2.5 µM in assay [6]; 0.28 µM in assay [7]; 5.63 µM in [2]; 3.21 µM in assay [8]; 3.96 µM in assay [3]. For the same compound, the TGI in assay [9] came to 7.45 µM; in assay [4] it was 5.62 µM; in assay [10] it was 8.04 µM; in assay [5], 2.75 µM.

In the case of `CN(C(=O)c1ccc(Cl)s1)C(=S)N(C)C(=O)c1ccc(Cl)s1`, the TGI in [1], in assay [6], in assay [7], in assay [2], in assay [8] and in assay [3] was more than 10 µM throughout. Further, the TGI in assay [9], in assay [4], in [10] and in [5] was more than 10 µM throughout.

Consider `CC[N+](CCCCCCCCCC[N+](CC)(c1ccccn1)c1ccccn1)(c1ccccn1)c1ccccn1`, for which the GI50 was 3.76 µM in [1]; 1.05 µM in [6]; 1.78 µM in assay [7]; 0.858 µM in assay [2]; 2.15 µM in assay [8]; 0.625 µM in [3]. For the same compound, the GI50 is 0.267 µM in assay [9], 3.65 µM in assay [4], 0.745 µM in assay [10] and 0.915 µM in assay [5]. For the same compound, the TGI in assay [1] is 66.2 µM; in [6], 8.78 µM; in assay [7] it was 11.6 µM; in [2], 12.4 µM; in assay [8], 9.15 µM; in assay [3] it was 10.3 µM. For the same compound, the TGI in assay [9] turned out to be 3.57 µM; in assay [4] it was 24.5 µM; in assay [10], 12.9 µM; in assay [5], 7.34 µM.

Regarding `CC1(C)C=CC[C@]2(C)[C@H]3CC[C@@H]4[C@H]5[C@H](C(=O)/C=C/c6cccnc6)CC[C@]5(CO)CC[C@@]4(C)[C@]3(C)CC[C@@H]12`, the GI50 in assay [1] was 1.64 µM; in assay [6], 0.56 µM; in [7], 1.69 µM; in [2], 1.36 µM; in [8], 1.54 µM; in assay [3], 1.03 µM. Moreover, the GI50 in assay [9] is 0.843 µM; in assay [4] it was 1.81 µM; in assay [10] it was 1.39 µM; in assay [5], 1.23 µM. The TGI was found to be 3.15 µM in assay [1]; 5.34 µM in assay [6]; 3.69 µM in [7]; 2.69 µM in assay [2]; 3.11 µM in assay [8]; 2.41 µM in assay [3]. The TGI in assay [9] was found to be 5.35 µM; in assay [4], 3.26 µM; in assay [10] it was 2.91 µM; in [5], 2.55 µM.

As to `COc1ccc2c(c1)sc1nc(-c3ccccc3)c(-c3ccsc3)n12`, the GI50 in assay [1] is 7.58 µM; in assay [7] it was 2.26 µM; in assay [2], 3.45 µM; in assay [8] it was 7.86 µM; in assay [3] it was 4.45 µM; in [4] it was 37.7 µM. For the same compound, the GI50 was more than 100 µM in assay [10] and 3.52 µM in assay [5]. For the same compound, the TGI in assay [1] is more than 100 µM; in assay [7], 6.38 µM; in assay [2] it was more than 100 µM; in assay [8], more than 100 µM; in assay [3] it was more than 100 µM; in assay [4], more than 100 µM. The TGI in assay [10] and in assay [5] was more than 100 µM throughout.

As to `S=C(Nc1ccc(-c2nc3ccccc3[nH]2)cc1)NC1CCCCC1`, the GI50 in assay [1] is 33.2 µM; in assay [6], 36.8 µM; in assay [2], 37.9 µM; in [8], 55.7 µM; in [9], 16.6 µM; in [4] it was 22.8 µM. Besides, the GI50 in assay [10] was 26.6 µM; in [5], 15.3 µM. The TGI is more than 100 µM in assay [7]; more than 100 µM in assay [8]; 90.2 µM in assay [9]; 80.6 µM in assay [4]; 57.1 µM in assay [10].

As for `Oc1ccc(Br)cc1Sc1cc(Br)ccc1O`, the GI50 in assay [1] is 18.6 µM; in [6], 5.25 µM; in assay [7] it was 17.8 µM; in assay [2], 11.7 µM; in assay [8] it was 13.6 µM; in assay [3] it was 5.1 µM. Moreover, the results for the GI50 in assay [9] and in assay [10] were 3.18 µM and 5.2 µM, respectively. For the same compound, the TGI in [1] was 35.4 µM; in assay [6] it was 24.8 µM; in assay [7], 34.9 µM; in assay [2], 28.4 µM; in [8], 30.2 µM; in assay [3] it was 20 µM. In addition, the TGI is 15.6 µM in assay [9] and 17.7 µM in [10].

As for `CCN(CC)CCNc1c(OC)cc(C)c2sc3ccccc3c(=O)c12`, the TGI in assay [1] came out at 28.4 µM; in assay [7], 5.02 µM; in assay [2] it was 24.2 µM; in assay [8], 25 µM; in assay [3] it was 18.9 µM; in [9] it was 3.05 µM. The TGI is 21 µM in assay [4], 3.6 µM in [10] and 3.36 µM in assay [5].

Turning to `O=c1cc(-c2ccccc2)[nH]c2cccc(S)c12`, the TGI was more than 100 µM in assay [1]; more than 100 µM in [6]; 19.2 µM in assay [7]; more than 100 µM in assay [2]; more than 100 µM in assay [8]; more than 100 µM in assay [3]. For the same compound, the TGI in assay [9], in [10] and in [5] was more than 100 µM each time.
